Earlier results in patent US20130143845A1, “VITAMIN D COMPOUNDS AND METHODS FOR ENHANCING MUSCLE STRENGTH, AND PREVENTION AND TREATMENT OF DISEASE IN HUMAN BEINGS” (priority 2011, published 2013).
Where two headings read alike, the source gives them in different places.

Conditions: in circulation

For `C=C1/C(=C\C=C2/CCC[C@]3(C)[C@@H]([C@H](C)CCCC(C)(C)O)CC[C@@H]23)C[C@@H](O)C[C@@H]1O` [1,25(OH)2D3, 1α,25-dihydroxyvitamin D3], the “half-life of 1,25(OH)2D3” value (prolonged by the invention (D3FACCPG), Lichtmann, personal communication) is listed as “approximately 12 hours” and the “half-life of 1,25(OH)2D3” value (without the invention (Holick, 2003)) is listed as “approximately 4 hours”.
